Data set [1] in a line: Emission measurement in CH3CN. Format: physicochemical. Particulars: room temperature, excitation at 355 nm. The procedure: The absorption of the samples was measured with a SpectraMax M2 Spectrometer (Molecular Devices). The emission was measured by irradiation of the sample in fluorescence quartz cuvettes (width 1 cm) using a NT342B Nd-YAG pumped optical parametric oscillator (Ekspla) at 355 nm. Luminescence was focused and collected at right angle to the excitation pathway and directed to a Princeton Instruments Acton SP-2300i monochromator. As a detector, a XPI-Max 4 CCD camera (Princeton Instruments) has been used.

Data set [2] is described as follows: Luminescence quantum yield measurements. Format: physicochemical. More on the design: key: fraction, relative to [Ru(bipy)3]Cl2 reference in CH3CN (Φem=5.9%). Particulars: CH3CN, room temperature, excitation at 355 nm. The procedure: For the determination of the luminescence quantum yield, the samples were prepared in an CH3CN solution with an absorbance of 0.1 at 355 nm. This solution was irradiated in fluorescence quartz cuvettes (width 1 cm) using a NT342B Nd-YAG pumped optical parametric oscillator (Ekspla) at 355 nm. The emission signal was focused and collected at right angle to the excitation pathway and directed to a Princeton Instruments Acton SP-2300i monochromator. As a detector a XPI-Max 4 CCD camera (Princeton Instruments) has been used. The luminescence quantum yields were determined by comparison with the reference [Ru(bipy)3]Cl2 in CH3CN (Φem=5.9%) (Nakamaru, K., 1982) applying the following formula:
Φem, sample=Φem, reference*(Freference/Fsample)*(Isample/Ireference)*(nsample/nreference)^2
Φem=luminescence quantum yield, F=fraction of light absorbed, I=integrated emission intensities, n=refractive index, A=absorbance of the sample at irradiation wavelength.

In data set [3] the test system is human cervical carcinoma (HeLa) cells. Kind of data set: (Photo-)cytotoxicity on 2D cell monolayers, resazurin assay, HeLa. In kind it is cell-based. The conditions noted are these: for PI (480 nm): dark vs 480 nm (10 min, 3.1 J/cm^2); for PI (540 nm): dark vs 540 nm (40 min, 9.5 J/cm^2). An excerpt: Before an experiment, the cells were passaged three times.
Data set [4] relates to mouse colon carcinoma (CT-26) cells.
Data set [5] concerns human glioblastoma astrocytoma (U373) cells. Kind of data set: (Photo-)cytotoxicity on 2D cell monolayers, resazurin assay, U373. The conditions noted are these: for PI (480 nm): U373, dark vs 480 nm (10 min, 3.1 J/cm^2); for PI (540 nm): U373, dark vs 540 nm (40 min, 9.5 J/cm^2); for IC50: compounds 1-3 as chloride salts. (Alamar Blue is a resazurin reagent that responds to reducing activity.)

The test system of data set [6] is non-cancerous retinal pigment epithelium (RPE-1) cells. Kind of data set: (Photo-)cytotoxicity on 2D cell monolayers, resazurin assay, RPE-1.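 As to all read-outs here: cells exposed to compound 4 h, medium exchanged, then irradiated or kept dark, 44 h further growth, viability by resorufin fluorescence (ex 540 nm, em 590 nm).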 The conditions noted are these: for PI (480 nm): RPE-1, dark vs 480 nm (10 min, 3.1 J/cm^2); for PI (540 nm): RPE-1, dark vs 540 nm (40 min, 9.5 J/cm^2).
Procedure: The human glioblastoma astrocytoma (U373) cell line was cultured in MEM medium supplemented with 10% FBS, 1% NEAA (non-essential amino-acids) and 1% penicillin/streptomycin. […] The human retinal epithelial cells (RPE-1, non-cancerous cells immortalized with hTERT) were cultured in DMEM-F12 medium supplemented with 10% FBS and 1% penicillin/streptomycin. All cell lines were obtained from the American Type Culture Collection (ATCC) and cultured at 37° C. and 5% CO2. Before an experiment, the cells were passaged three times.
The cytotoxicity of the compounds was assessed by measuring cell viability using a fluorometric resazurin assay. The cultivated cells were seeded in triplicates in 96 well plates with a density of 4000 cells per well in 100 μL of media. After 24 h, the medium was removed and the cells were treated with increasing concentrations of the compound diluted in cell media achieving a total volume of 200 μL. The cells were incubated with the compound for 4 h. After this time, the media was removed and replaced with 200 μL of fresh medium. For the phototoxicity studies, the cells were exposed to light with an Atlas Photonics LUMOS BIO irradiator. Each well was constantly illuminated with either a 480 nm or 540 nm irradiation. During this time, the temperature was maintained constantly at 37° C. The cells were grown in the incubator for additional 44 h. For the determination of the dark cytotoxicity, the cells were not irradiated and after the medium exchange directly incubated for 44 h. After this time, the medium was replaced with fresh medium containing resazurin with a final concentration of 0.2 mg/mL. After 4 h incubation, the amount of the fluorescent product resorufin was determined upon excitation at 540 nm and measurement its emission at 590 nm using a SpectraMax M2 Microplate Reader (Molecular Devices).
The obtained data was analyzed with the GraphPad Prism software.
Data set [7] deals with mouse colon carcinoma (CT-26) cells. The data set can be described thus: (Photo-)cytotoxicity on 2D cell monolayers, resazurin assay, CT-26. The conditions noted are these: for PI (480 nm): CT-26, dark vs 480 nm (10 min, 3.1 J/cm^2); for PI (540 nm): CT-26, dark vs 540 nm (40 min, 9.5 J/cm^2); for IC50: compounds 1-3 as chloride salts.
[8] abbreviates: dark, 4 h incubation, compounds 1-3 as chloride salts, read-out: IC50 dark.
Setting [9] is: read-out: IC50 480 nm (10 min, 3.1 J/cm^2), irradiation 480 nm (10 min, 3.1 J/cm^2), compounds 1-3 as chloride salts.
Where [10] appears, read: read-out: IC50 540 nm (40 min, 9.5 J/cm^2), irradiation 540 nm (40 min, 9.5 J/cm^2), compounds 1-3 as chloride salts.
[11] abbreviates: read-out: IC50 480 nm (10 min, 3.1 J/cm^2), U373, irradiation 480 nm (10 min, 3.1 J/cm^2).
Setting [12] is: read-out: IC50 dark, U373, dark, 4 h incubation.
Where [13] appears, read: read-out: IC50 540 nm (40 min, 9.5 J/cm^2), CT-26, irradiation 540 nm (40 min, 9.5 J/cm^2).
Setting [14] is: read-out: IC50 dark, CT-26, dark, 4 h incubation.

Like-named read-outs stand apart in the source and are kept apart here.

On to `CN(C)c1ccc(/C=C/c2ccnc(-c3cc(/C=C/c4ccc(N(C)C)cc4)ccn3)c2)cc1.CN(C)c1ccc(/C=C/c2ccnc(-c3cc(/C=C/c4ccc(N(C)C)cc4)ccn3)c2)cc1.F[P-](F)(F)(F)(F)F.F[P-](F)(F)(F)(F)F.[Ru+2].c1ccc(-c2ccccn2)nc1` [Compound 4, [Ru(bipy)((E,E′)-4,4′-Bis[p-(N,N-dimethylamino)styryl]-2,2′-bipyridine)2][PF6]2], for which, in data set [1], the “λem/nm (Emission maximum)” value came to 703 nm. Besides, in data set [2], the “ϕem (Luminescence Quantum Yield)” value is reported as 0.004. The “PI (480 nm)” value in data set [3] was over 11.8; in data set [5] it was over 7.0; in data set [6], over 9.2; in data set [7] it was over 13.7. The “PI (540 nm)” value in data set [3] was over 9.4; in data set [5], over 5.3; in data set [6], over 6.8; in data set [7] it was over 10.4. The IC50 in data set [3] (setting [8]) is over 100 µM; in data set [3] (setting [9]), 8.5 ± 1.2 µM; in data set [3] (setting [10]), 10.6 ± 2.2 µM; in data set [4], 7.3 ± 1.4 µM; in data set [5] (setting [11]) it was 14.3 ± 2.4 µM; in data set [5] (setting [12]) it was over 100 µM. In addition, the results for the IC50 in data set [7] (setting [13]) and in data set [7] (setting [14]) were 9.6 ± 1.9 µM and over 100 µM, respectively.
As to `COc1ccc(/C=C/c2ccnc(-c3cc(/C=C/c4ccc(OC)cc4)ccn3)c2)cc1.COc1ccc(/C=C/c2ccnc(-c3cc(/C=C/c4ccc(OC)cc4)ccn3)c2)cc1.F[P-](F)(F)(F)(F)F.F[P-](F)(F)(F)(F)F.[Ru+2].c1ccc(-c2ccccn2)nc1` [Compound 5, [Ru(bipy)((E,E′)-4,4′-Bis[p-methoxystyryl]-2,2′-bipyridine)2][PF6]2], the “λem/nm (Emission maximum)” value in data set [1] came out at 674 nm. Further, the “ϕem (Luminescence Quantum Yield)” value in data set [2] came out at 0.014. For the same molecule, the “PI (480 nm)” value in data set [3] is reported as over 16.7; in data set [5], over 6.5; in data set [6], over 9.8; in data set [7], over 19.6. In addition, the “PI (540 nm)” value is listed as over 12.7 in data set [3], over 5.6 in data set [5], over 7.9 in data set [6] and over 16.1 in data set [7]. The IC50 in data set [3] (setting [8]) was over 100 µM; in data set [3] (setting [9]) it was 6.4 ± 1.7 µM; in data set [3] (setting [10]), 7.9 ± 1.3 µM; in data set [4] it was 5.1 ± 1.1 µM; in data set [5] (setting [11]) it was 15.3 ± 2.2 µM; in data set [5] (setting [12]), over 100 µM. The IC50 in data set [7] (setting [13]) was 6.2 ± 1 µM; in data set [7] (setting [14]), over 100 µM.
With `CN(C)c1ccc(/C=C/c2ccnc(-c3cc(/C=C/c4ccc(N(C)C)cc4)ccn3)c2)cc1.F[P-](F)(F)(F)(F)F.F[P-](F)(F)(F)(F)F.[Ru+2].c1ccc(-c2ccccn2)nc1.c1ccc(-c2ccccn2)nc1` [Compound 6, [Ru(bipy)2((E,E′)-4,4′-Bis[p-(N,N-dimethylamino)styryl]-2,2′-bipyridine)][PF6]2], the “λem/nm (Emission maximum)” value in data set [1] is recorded as 697 nm. Moreover, in data set [2], the “ϕem (Luminescence Quantum Yield)” value was determined as 0.005. The “PI (480 nm)” value in data set [3] is recorded as over 18.9; in data set [5] it was over 12.0; in data set [6], over 13.7; in data set [7], over 41.7. Also, the “PI (540 nm)” value in data set [3] is over 17.2; in data set [5], over 9.3; in data set [6] it was over 12.3; in data set [7] it was over 32.3. Besides, the IC50 in data set [3] (setting [8]) is over 100 µM; in data set [3] (setting [9]), 5.3 ± 0.6 µM; in data set [3] (setting [10]) it was 5.8 ± 0.9 µM; in data set [4] it was 2.4 ± 0.5 µM; in data set [5] (setting [11]), 8.3 ± 1.1 µM; in data set [5] (setting [12]), over 100 µM. Moreover, the results for the IC50 in data set [7] (setting [13]) and in data set [7] (setting [14]) were 3.1 ± 0.3 µM and over 100 µM, respectively.
In the case of `CN(C)c1ccc(/C=C/c2ccnc(-c3cc(/C=C/c4ccc(N(C)C)cc4)ccn3)c2)cc1.F[P-](F)(F)(F)(F)F.F[P-](F)(F)(F)(F)F.[Ru+2].c1cnc2c(c1)ccc1cccnc12.c1cnc2c(c1)ccc1cccnc12` [Compound 8, [Ru(phen)2((E,E′)-4,4′-Bis[p-(N,N-dimethylamino)styryl]-2,2′-bipyridine)][PF6]2], the “λem/nm (Emission maximum)” value in data set [1] is 698 nm. Also, the “ϕem (Luminescence Quantum Yield)” value in data set [2] was determined as 0.004. In addition, the “PI (480 nm)” value in data set [3] is recorded as over 7.9; in data set [5] it was over 8.5; in data set [6], over 10.9; in data set [7] it was over 12.2. In addition, the “PI (540 nm)” value is given as over 8.8 in data set [3], over 7.5 in data set [5], over 6.4 in data set [6] and over 12.8 in data set [7]. Besides, the IC50 in data set [3] (setting [8]) was over 100 µM; in data set [3] (setting [9]), 12.6 ± 1.3 µM; in data set [3] (setting [10]) it was 11.4 ± 1.5 µM; in data set [4], 8.2 ± 1.1 µM; in data set [5] (setting [11]) it was 11.7 ± 1.5 µM; in data set [5] (setting [12]), over 100 µM. For the same molecule, the IC50 in data set [7] (setting [13]) is 7.8 ± 0.9 µM; in data set [7] (setting [14]) it was over 100 µM.
Regarding `COc1ccc(/C=C/c2ccnc(-c3cc(/C=C/c4ccc(OC)cc4)ccn3)c2)cc1.F[P-](F)(F)(F)(F)F.F[P-](F)(F)(F)(F)F.[Ru+2].c1cnc2c(c1)ccc1cccnc12.c1cnc2c(c1)ccc1cccnc12` [Compound 9, [Ru(phen)2((E,E′)-4,4′-Bis[p-methoxystyryl]-2,2′-bipyridine)][PF6]2], the “λem/nm (Emission maximum)” value in data set [1] is recorded as 663 nm. In addition, in data set [2], the “ϕem (Luminescence Quantum Yield)” value turned out to be 0.019. The “PI (480 nm)” value in data set [3] is recorded as over 66.7; in data set [5], over 40.0; in data set [6], over 41.7; in data set [7] it was over 90.9. Besides, the “PI (540 nm)” value in data set [3] is given as over 83.3; in data set [5], over 47.6; in data set [6], over 47.6; in data set [7], over 111.1. Also, the IC50 in data set [3] (setting [8]) was over 100 µM; in data set [3] (setting [9]), 1.5 ± 0.6 µM; in data set [3] (setting [10]), 1.2 ± 0.7 µM; in data set [4], 1.1 ± 0.5 µM; in data set [5] (setting [11]), 2.5 ± 0.9 µM; in data set [5] (setting [12]), over 100 µM. In addition, the IC50 in data set [7] (setting [13]) is 0.9 ± 0.4 µM; in data set [7] (setting [14]) it was over 100 µM.
In the case of `CN(C)c1ccc(/C=C/c2ccnc(-c3cc(/C=C/c4ccc(N(C)C)cc4)ccn3)c2)cc1.F[P-](F)(F)(F)(F)F.F[P-](F)(F)(F)(F)F.[Ru+2].c1ccc(-c2ccnc3c2ccc2c(-c4ccccc4)ccnc23)cc1.c1ccc(-c2ccnc3c2ccc2c(-c4ccccc4)ccnc23)cc1` [Compound 10, [Ru(4,7-Diphenyl-1,10-phenanthroline)2((E,E′)-4,4′-Bis[p-(N,N-dimethylamino)styryl]-2,2′-bipyridine)][PF6]2], the “λem/nm (Emission maximum)” value in data set [1] is reported as 698 nm. The “ϕem (Luminescence Quantum Yield)” value in data set [2] was determined as 0.006. Moreover, the “PI (480 nm)” value in data set [3] was determined as 6.7; in data set [5], 7.6; in data set [6], 8.7; in data set [7] it was 4.0. The “PI (540 nm)” value was determined as 6.3 in data set [3], 6.5 in data set [5], 7.4 in data set [6] and 4.7 in data set [7]. Besides, the IC50 came out at 10.7 ± 1.4 µM in data set [3] (setting [8]); 1.6 ± 0.3 µM in data set [3] (setting [9]); 1.7 ± 0.4 µM in data set [3] (setting [10]); 1.3 ± 0.3 µM in data set [4]; 1.8 ± 0.3 µM in data set [5] (setting [11]); 13.7 ± 1.1 µM in data set [5] (setting [12]). In addition, the IC50 in data set [7] (setting [13]) turned out to be 1.1 ± 0.4 µM; in data set [7] (setting [14]), 5.2 ± 0.8 µM.
